Measurements taken from publication PMC4533973, “Synthesis and Evaluation of Chloramphenicol Homodimers: Molecular Target, Antimicrobial Activity, and Toxicity against Human Cells” (PLoS ONE, 2015).
Read-outs that look alike come from different tables or passages of the source. Marks after values point to notes of the source that are not given here.

Columns and labels:
[1] = target: T1, CAM acetyltransferase (Escherichia coli, UniProt P62577); test: CAM acetyltransferase assay (compounds as acetyl-acceptor substrates); format: biochemical, E. coli
T1 construct: purchased Sigma-Aldrich; host or cells: E. coli
T1 sequence (P62577 whole entry, looked up): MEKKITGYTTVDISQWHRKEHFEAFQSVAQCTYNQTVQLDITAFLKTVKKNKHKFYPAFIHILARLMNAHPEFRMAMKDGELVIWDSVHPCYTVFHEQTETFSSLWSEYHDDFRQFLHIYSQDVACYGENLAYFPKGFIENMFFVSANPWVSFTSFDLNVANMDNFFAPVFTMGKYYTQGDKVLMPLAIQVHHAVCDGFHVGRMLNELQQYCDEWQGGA
Description: Fig 6 Kinetic analysis of the CAM acetyltransferase reaction using CAM or compounds 4 and 5 as substrates. […] The product of the enzymatic reaction, coenzyme A, reacted with 5,5’-dithio-bis(2-nitrobenzoic acid) to yield 5-thio-2-nitrobenzoate which absorbs at 412 nm, with a micromolar extinction coefficient equal to 0.0136. The Vmax and Km values were determined by fitting the substrate concentrations [S] and the obtained ΔA412nm/min (Vo) values into equation V 0 = V max[S]/(K m + [S]). The obtained Vmax values were divided by 0.0136 to convert their units in μM·min^-1 (http://www.sigmaaldrich.com/technical-documents/protocols/biology/enzymatic-assay-of-chloramphenicol-acetyltransferase.html). The ratio Vmax/Km for each curve is given in parenthesis. TEXT PRINTED IN THE PICTURE: no label printed: (0.178 min^-1) | no label printed: (0.139 min^-1) | no label printed: (0.008 min^-1) DOUBTS OF THE COPYIST ABOUT THIS PICTURE: The picture prints no substance label and no measure name for the three values. They stand beside the curves marked with triangles (0.178 min^-1), circles (0.139 min^-1) and squares (0.008 min^-1). […]

[2] = system: 70S ribosomes from E. coli (central loop of Domain V of 23S rRNA); test: Time-resolved footprinting of RI and R*I complexes; format: binding; conditions: ratio to control lane R
From the text: The behavior of compound 5 was compared to that of compound 4, which is bearing a flexible linker of the same length. The footprinting analysis exploits the slow-binding character of the dimers and has been successfully applied in studying various slow-binding inhibitors of the PTase. To overcome potential drawbacks resulting from protections caused by natural PTase substrates, naked 70S ribosomes were used instead of complex C. To footprint the RI complex, compounds 4 or 5 used in excess, and ribosomes were incubated at 25°C for 2 s, and then treated with chemical probes for 3 min to modify accessible nucleosides in 23S rRNA. Because the first step of binding, R + I ⇄ RI, equilibrates rapidly while the formation of R*I occurs slowly, the main product formed during such a short time interval was complex RI (>93%). To footprint the R*I complex, each dimer and ribosomes were incubated for 10 min, a time interval that is over than ten half-lives required for the attainment of the steady state. Because the isomerization constant, k on/k off, is at least 2.2 (see Table 1), most of the ribosomes added in the reaction mixture (>70%) were in the form of R*I complex at the end of this time interval.
Chemical modification of complexes RI and R*I with DMS, kethoxal, or CMCT, primer extension analysis, and gel electrophoresis of the primer extension products were performed as previously described. […] Quantitative scanning of the gels, and normalization of the band intensities were made as previously shown. Values indicated in Table 2 denote the ratio between the normalized intensity of a band of interest and the normalized intensity of the corresponding band in the control lane (ribosomes non-treated with CAM or CAM dimers).

[3] = system: MRSA (GRE2272); test: Antibacterial activity (growth inhibition, EC50); format: cell-based; conditions: Staphylococcus aureus
From the text: (§1) A.S. Mankin (University of Illinois). E. coli ΔtolC strain BL21 DE3 with impaired AcrAB-TolC, a proton-dependent MDR efflux pump causing multidrug resistance, was offered by Dr D.N. Wilson (University of Munich) and included in our study to test if this mechanism of resistance affects the efficacy of CAM dimers. […] I. Spiliopoulou (National Reference Laboratory for Staphylococci, School of Medicine, University of Patras, Greece). Finally, E. coli strain Rosetta(DE3)pLysS, containing a chloramphenicol resistant gene in the pLysS plasmid, was purchased from Novagen and was also included in our study. Briefly, S. aureus or E. coli cells (200 μl of a 0.700 OD560 preculture) containing wild-type or mutant ribosomes were added in 3.8 ml of LB (Luria-Bertani) medium and grown at 37°C in the presence or absence of CAM or CAM dimers until the optical density of the control culture (grown in the absence of drug) reached the value 0.700 at 560 nm. For E. faecium and P. aeruginosa cultures, TSB (Tryptic Soy Broth) medium was used, instead of LB medium, in order to achieve exponential doubling times between 25 and 35 minutes. From dose-response curves, the half-maximal effective concentration (EC50) for each compound and strain was estimated. EC50 represents the molar concentration of a compound that produces 50% of the maximal possible effect. The EC50 values were mathematically determined by non linear regression fitting of the observed culture optical-density values, expressed as the percentage of 0.700 (y), into Hill Equation, y=min+max−min/1+(x/EC50)^−n where min and max are the lowest and highest observed values of the culture optical density, respectively, x the concentration of the tested compound, and n the Hill coefficient that represents the largest absolute value of the curve slope. EC50 is equal to the x- value of the sigmoid’s midpoint. Fitting was performed using the Four Parameter Logistic Curve of the SigmaPlot Program Version 11.0 (Systat Software, Inc) for Exact Graphs and Data Analysis.

[4] = system: P. aeruginosa (GRE5288); test: Antibacterial activity (growth inhibition, EC50); format: cell-based, Pseudomonas aeruginosa; conditions: Pseudomonas aeruginosa
From the text: as §1

[5] = system: E. coli (A2503C); test: Antibacterial activity (growth inhibition, EC50); format: cell-based, Escherichia coli; conditions: for EC50: Escherichia coli
From the text: as §1

[6] = system: E. coli (A2058G); test: Antibacterial activity (growth inhibition, EC50); format: cell-based, Escherichia coli; conditions: for EC50: Escherichia coli
From the text: as §1

[7] = system: E. coli (WT); test: Antibacterial activity (growth inhibition, EC50); format: cell-based, Escherichia coli; conditions: for EC50: Escherichia coli, LB medium, 37°C, OD560; for EC50(cell growth)/IC50(puro): wild-type E. coli, IC50(puro) calculated from Ki* at 2 mM puromycin
From the text: as §1

[8] = system: E. coli Rosetta(DE3)pLysS; test: Antibacterial activity (growth inhibition, EC50); format: cell-based, Escherichia coli; conditions: for EC50: Escherichia coli
From the text: as §1

[9] = system: E. coli (ΔtolC); test: Antibacterial activity (growth inhibition, EC50); format: cell-based, Escherichia coli; conditions: Escherichia coli, BL21-DE3
From the text: as §1

[10] = R*I complex (10 min incubation)

| Compound | behaviour as substrate of CAM acetyltransferase [1] | Relative reactivity of A2058 [2, 10] | Relative reactivity of A2059 ([2]; R*I complex) | Relative reactivity of A2062 ([2]; R*I complex) | Relative reactivity of A2451 ([2]; R*I complex) | Relative reactivity of G2505 ([2]; R*I complex) | Relative reactivity of U2506 ([2]; R*I complex) | Relative reactivity of U2609 ([2]; R*I complex) | Relative reactivity of A2058 ([2]; RI complex (2 s incubation)) | Relative reactivity of A2059 ([2]; RI complex) | Relative reactivity of A2062 ([2]; RI complex) | Relative reactivity of A2451 ([2]; RI complex) | Relative reactivity of G2505 ([2]; RI complex) | Relative reactivity of U2506 ([2]; RI complex) | Relative reactivity of U2609 ([2]; RI complex) | EC50 [5] [µM] | EC50 [6] [µM] | EC50 [7] [µM] | EC50(cell growth)/IC50(puro) [7] | EC50 [8] [µM] | further results |
| --- | --- | --- | --- | --- | --- | --- | --- | --- | --- | --- | --- | --- | --- | --- | --- | --- | --- | --- | --- | --- | --- |
| O=C(N[C@H](CO)[C@H](O)c1ccc([N+](=O)[O-])cc1)c1ccc(C(=O)N[C@H](CO)[C@H](O)c2ccc([N+](=O)[O-])cc2)cc1 [Compound 5, N^1,N^4-Bis ((1R,2R)-1,3-dihydroxy-1-(4-nitrophenyl)propan-2-yl)-terephthalamide] | almost inactive | 0.32 ± 0.04 ^b ^, ^c | 0.33 ± 0.08 ^b ^, ^c | 0.40 ± 0.09 ^b ^, ^c | 0.41 ± 0.05 ^c | 0.35 ± 0.06 ^c | 0.33 ± 0.05 ^b ^, ^c | 0.79 ± 0.08 ^b ^, ^c | 0.93 ± 0.06 | 0.96 ± 0.08 | 0.80 ± 0.06 ^b | 0.40 ± 0.03 ^b | 0.38 ± 0.05 ^b | 0.47 ± 0.05 ^b | 1.00 ± 0.08 | 16.4 ± 1.5 | 18 ± 1.5 | 25.3 ± 1.9 | 14.06 ± 1.75 | 23.5 ± 1.3 | EC50 ([3]; LB medium, 37°C, OD560, read-out: EC50): 16.9 ± 4.4 µM; EC50 ([4]; TSB medium, clinical isolate with MexAB-OprM and MexXY efflux, read-out: EC50): 15.2 ± 1.3 µM; fold more active than CAM in inhibiting the A2503C mutant [5]: approximately 2 fold; activity relative to CAM in inhibiting the growth of the A2058G mutant [6]: equivalent to CAM; activity compared to CAM in inhibiting the growth of Rosetta(DE3)pLysS E. coli cells [8]: five-fold higher activity; EC50 [9]: 23.7 ± 1.5 µM |
| O=C(CCCCC(=O)N[C@H](CO)[C@H](O)c1ccc([N+](=O)[O-])cc1)N[C@H](CO)[C@H](O)c1ccc([N+](=O)[O-])cc1 [Compound 4, N^1,N^6-Bis((1R,2R)-1,3-dihydroxy-1-(4-nitrophenyl)propan-2-yl)adipamide] | behaves like CAM as substrate of CAM acetyltransferase | 0.90 ± 0.09 | 0.70 ± 0.07 ^b ^, ^c | 0.67 ± 0.05 ^b ^, ^c | 0.77 ± 0.05 ^b | 0.44 ± 0.03 ^b | 0.70 ± 0.04 ^b | 1.00 ± 0.07 | 0.99 ± 0.07 | 0.94 ± 0.06 | 0.88 ± 0.08 ^b | 0.67 ± 0.04 ^b | 0.43 ± 0.03 ^b | 0.70 ± 0.05 ^b | 1.00 ± 0.10 | > 100 | 97 ± 3.3 | 83.6 ± 6.2 | 7.45 ± 0.81 | > 200 | EC50 [3]: > 200 µM; EC50 [4]: 72.6 ± 13.7 µM; EC50 [9]: 98 ± 16.3 µM |
